The record followed here is US20140291659A1, “DIOXAANTHANTHRENE COMPOUND, LAMINATED STRUCTURE AND FORMATION METHOD THEREOF, AND ELECTRONIC DEVICE AND MANUFACTURING METHOD THEREOF” (Sony Corporation, priority 2011, published 2014).

Structures are written as SMILES.

The data set can be described thus: Solubility in an organic solvent (toluene). It counts as physicochemical. As to conditions: for Solubility: grams of PXX compound dissolving in 10 grams of toluene. The protocol: The melting point and the mesophase transition temperature of the PXX compound can be determined by TG-DTA (thermogravimetry/differential thermal analysis) and DSC (differential scanning calorimetry). Further, solubility in an organic solvent was measured. […] In Table 1, the mesophase transition temperature is denoted as “transition temperature”. […]

`CC(C)c1ccc(-c2ccc3oc4ccc5c(-c6ccc(C(C)C)cc6)ccc6oc7ccc2c3c7-c4c65)cc1` [Comparative Example 2D] returned a Solubility of 0.37 g. Further, the “Amount dissolved in toluene” value (in 100 grams of toluene) is on record as 0.37 grams.
Consider `CC(C)Cc1ccc(-c2ccc3oc4ccc5c(-c6ccc(CC(C)C)cc6)ccc6oc7ccc2c3c7-c4c65)cc1` [Working Example 2A], for which the Solubility came out at 1.5 g.
Still for that read-out and setting: the result for `CC(C)CCc1ccc(-c2ccc3oc4ccc5c(-c6ccc(CCC(C)C)cc6)ccc6oc7ccc2c3c7-c4c65)cc1` [Working Example 2B] reads 1.3 g.
